Patent US12344610B2, “APOL1 inhibitors and methods of use” (Maze Therapeutics, Inc., priority 2022, dated 2025)

Each compound was assayed against T1, APOL1 G2 (Homo sapiens, UniProt O14791, DEL388-389) (assay: APOL1-mediated calcium transport (calcium influx) assay, HEK T-REx/GCaMP6f/APOL1 G2 K6.3 cells, FLIPR TETRA). Settings: prevention of calcium influx; geometric mean of at least 2 assay runs; † = average of a technical replicate from a single assay run.
T1 construct: expressed in transfected cells; host or cells: HEK293 T-REx clonal line stably expressing GCaMP6f (HEK T-REx/GCaMP6f/APOL1 G2 K6.3), doxycycline induced
T1 sequence (O14791 with tags, fused parts or gaps DEL388-389): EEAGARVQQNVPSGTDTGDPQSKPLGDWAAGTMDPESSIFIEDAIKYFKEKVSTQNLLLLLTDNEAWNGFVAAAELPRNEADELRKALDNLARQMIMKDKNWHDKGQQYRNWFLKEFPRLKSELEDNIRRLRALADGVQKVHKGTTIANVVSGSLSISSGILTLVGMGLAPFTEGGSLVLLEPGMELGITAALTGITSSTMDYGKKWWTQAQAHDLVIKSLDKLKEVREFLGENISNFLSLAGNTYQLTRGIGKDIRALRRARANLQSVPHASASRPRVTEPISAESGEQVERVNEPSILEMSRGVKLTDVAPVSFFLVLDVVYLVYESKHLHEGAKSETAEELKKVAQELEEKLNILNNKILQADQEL
Type: cell-based
Procedure, shortened: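 A HEK293 T-REx clone stably expressing GCaMP6f had APOL1 G2 induced with doxycycline (20 ng/mL solution added) for 6 h. Cells were then washed into Ca2+-free Tyrode's buffer (pH 7.4) and preincubated with compounds (duplicate 8-point) for 10 min at room temperature. Ca2+ injection to 5 mM final produced FLIPR GCaMP fluorescence, giving AC50 for influx inhibition (geometric mean, ≥2 runs).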
Compound `CS(=O)(=O)c1c(F)cc(OCCN2CCC3(CC2)C(=O)Nc2ccccc23)cc1F` [Compound 42, 1′-[2-(3,5-difluoro-4-methanesulfonylphenoxy)ethyl]-1,2-dihydrospiro[indole-3,4′-piperidin]-2-one] has an AC50 of 0.316 µM.
With `C[C@]1(O)C[C@@H](n2cnc3cc(OCCN4CCC5(CC4)C(=O)Nc4ccc(C#N)cc45)cc(C(F)(F)F)c32)C1` [Compound 433, 1′-(2-((1-((cis)-3-hydroxy-3-methylcyclobutyl)-7-(trifluoromethyl)-1H-benzo[d]imidazol-5-yl)oxy)ethyl)-2-oxospiro[indoline-3,4′-piperidine]-5-carbonitrile] the AC50 was 1.3 µM.
`CC(c1ccc(OCCN2CCC3(CC2)C(=O)Nc2ccc(Cl)cc23)cc1)S(C)(=O)=O` (single isomer, unassigned) [Compound 39, 5-chloro-1′-(2-{4-[(1S) or (1R)-1-methanesulfonylethyl]phenoxy}ethyl)-1,2-dihydrospiro[indole-3,4′-piperidin]-2-one] was tested, and the AC50 was 0.745 µM.
`CS(=O)(=O)c1ccc(OCCN2CCC3(CC2)C(=O)Nc2ccc(Cl)cc23)cc1` [Compound 69, 5-chloro-1′-[2-(4-methanesulfonylphenoxy)ethyl]-1,2-dihydrospiro[indole-3,4′-piperidin]-2-one] showed an AC50 of 0.216 µM.
Work on `CC1(O)CC(CN2C(=O)CCc3cc(OCCN4CCC5(CC4)C(=O)Nc4ccc(Cl)cc45)cnc32)C1` (stereo not shown) [Compound 327, 5-chloro-1′-[2-({8-[(3-hydroxy-3-methylcyclobutyl)methyl]-7-oxo-5,6,7,8-tetrahydro-1,8-naphthyridin-3-yl}oxy)ethyl]-1,2-dihydrospiro[indole-3,4′-piperidin]-2-one] yielded an AC50 of 0.452 µM.
`C[C@]1(O)C[C@@H](n2nnc3cc(OCCN4CCC5(CC4)C(=O)Nc4ccc(C#N)cc45)cc(C(F)(F)F)c32)C1` [Compound 435, 2-oxo-1′-[2-({1-[(cis)-3-hydroxy-3-methylcyclobutyl]-7-(trifluoromethyl)-1H-1,2,3-benzotriazol-5-yl}oxy)ethyl]-1,2-dihydrospiro[indole-3,4′-piperidine]-5-carbonitrile] was tested, and the AC50 was 1.17 µM.
Compound `CC[C@]1(O)C[C@@H](N2C(=O)CCc3cc(OCCN4CCC5(CC4)C(=O)Nc4ccc(Cl)cc45)cnc32)C1` (single isomer, unassigned) [Compound 321, 5-chloro-1′-[2-({7-oxo-8-[(cis)-3-ethyl-3-hydroxycyclobutyl]-5,6,7,8-tetrahydro-1,8-naphthyridin-3-yl}oxy)ethyl]-1,2-dihydrospiro[indole-3,4′-piperidin]-2-one] has an AC50 of 0.621 µM.
In the case of `CC(=O)N1CCCc2cc(OCCN3CCC4(CC3)C(=O)Nc3ccc(Cl)cc34)ccc21` [Compound 56, 1′-{2-[(1-acetyl-1,2,3,4-tetrahydroquinolin-6-yl)oxy]ethyl}-5-chloro-1,2-dihydrospiro[indole-3,4′-piperidin]-2-one], the AC50 is reported as 1.01 µM.
`O=C1CCc2cc(OCCN3CCC4(CC3)C(=O)Nc3ccc(Cl)cc34)cnc2N1[C@H]1C[C@@H](CO)C1` (single isomer, unassigned) [Compound 319, 5-chloro-1′-[2-({7-oxo-8-[(cis)-3-(hydroxymethyl)cyclobutyl]-5,6,7,8-tetrahydro-1,8-naphthyridin-3-yl}oxy)ethyl]-1,2-dihydrospiro[indole-3,4′-piperidin]-2-one] was tested, and the AC50 was 0.378 µM.
For `C[C@]1(O)C[C@@H](n2c(=O)[nH]c3cc(OCCN4CCC5(CC4)C(=O)Nc4ccc(Cl)cc45)cc(C(F)(F)F)c32)C1` [Compound 468, 5-chloro-1′-[2-({2-oxo-1-[(cis)-3-hydroxy-3-methylcyclobutyl]-7-(trifluoromethyl)-2,3-dihydro-1H-1,3-benzodiazol-5-yl}oxy)ethyl]-1,2-dihydrospiro[indole-3,4′-piperidin]-2-one], the AC50 was 0.867 µM.
`C[C@]1(O)C[C@@H](N2C(=O)C3(CC3)c3cc(OCCN4CCC5(CC4)C(=O)Nc4ccc(Cl)cc45)cnc32)C1` [Compound 460, 5-chloro-1′-(2-{2′-oxo-1′-[(cis)-3-hydroxy-3-methylcyclobutyl]-1′,2′-dihydrospiro[cyclopropane-1,3′-pyrrolo[2,3-b]pyridin]-5′-yloxy}ethyl)-1,2-dihydrospiro[indole-3,4′-piperidin]-2-one] was tested, and the AC50 was 0.317 µM.
Compound `C[C@]1(O)C[C@@H](n2cnc3cc(OCCN4CCC5(CC4)C(=O)Nc4ccc(Cl)cc45)cc(C(F)(F)F)c32)C1` [Compound 352, 5-chloro-1′-[2-({1-[(cis)-3-hydroxy-3-methylcyclobutyl]-7-(trifluoromethyl)-1H-1,3-benzodiazol-5-yl}oxy)ethyl]-1,2-dihydrospiro[indole-3,4′-piperidin]-2-one] has an AC50 of 0.597 µM.
`C[C@]1(O)C[C@@H](n2cnc3cc(OCCN4CCC5(CC4)C(=O)Nc4ccc(C(F)F)cc45)cc(C(F)(F)F)c32)C1` [Compound 450, 5-(difluoromethyl)-1′-[2-({1-[(cis)-3-hydroxy-3-methylcyclobutyl]-7-(trifluoromethyl)-1H-1,3-benzodiazol-5-yl}oxy)ethyl]-1,2-dihydrospiro[indole-3,4′-piperidin]-2-one] showed an AC50 of 2.27 µM.
Work on `C[C@]1(O)C[C@@H](n2ccc3cc(OCCN4CCC5(CC4)C(=O)Nc4ccc(C(F)F)cc45)cnc32)C1` [Compound 350, 5-(difluoromethyl)-1′-[2-({1-[(cis)-3-hydroxy-3-methylcyclobutyl]-1H-pyrrolo[2,3-b]pyridin-5-yl}oxy)ethyl]-1,2-dihydrospiro[indole-3,4′-piperidin]-2-one] yielded an AC50 of 0.113 µM.
Work on `CC(C)(CO)c1ncc(OCCN2CCC3(CC2)C(=O)Nc2ccc(Cl)cc23)cn1` [Compound 334, 5-chloro-1′-(2-{[2-(1-hydroxy-2-methylpropan-2-yl)pyrimidin-5-yl]oxy}ethyl)-1,2-dihydrospiro[indole-3,4′-piperidin]-2-one] yielded an AC50 of 2 µM.
`CS(=O)(=O)c1ccc(OCCN2CCC3(CC2)C(=O)Nc2ccc(C#N)cc23)cc1` [Compound 71, 1′-[2-(4-methanesulfonylphenoxy)ethyl]-2-oxo-1,2-dihydrospiro[indole-3,4′-piperidine]-5-carbonitrile] was tested, and the AC50 was 0.626 µM.
`O=C1CCc2cc(OCCN3CCC4(CC3)C(=O)Nc3ccc(Cl)cc34)cnc2N1C1CC(CO)C1` (stereo not shown) [Compound 326, 5-chloro-1′-[2-({8-[3-(hydroxymethyl)cyclobutyl]-7-oxo-5,6,7,8-tetrahydro-1,8-naphthyridin-3-yl}oxy)ethyl]-1,2-dihydrospiro[indole-3,4′-piperidin]-2-one] was tested, and the AC50 was 0.68 µM.
`O=C1Nc2ccc(Cl)cc2C12CCN(CCOc1ccc3nccnc3c1)CC2` [Compound 62, 5-chloro-1′-[2-(quinoxalin-6-yloxy)ethyl]-1,2-dihydrospiro[indole-3,4′-piperidin]-2-one] gave an AC50 of 0.958 µM.
`C[C@]1(O)C[C@@H](N2C(=O)NCc3cc(OCCN4CCC5(CC4)C(=O)Nc4ccc(Cl)cc45)cnc32)C1` [Compound 356, 5-chloro-1′-[2-({2-oxo-1-[(cis)-3-hydroxy-3-methylcyclobutyl]-1H,2H,3H,4H-pyrido[2,3-d]pyrimidin-6-yl}oxy)ethyl]-1,2-dihydrospiro[indole-3,4′-piperidin]-2-one] showed an AC50 of 2.49 µM.
`C[C@]1(O)C[C@@H](n2cnc3cc(OCCN4CCC5(CC4)C(=O)Nc4ccc(Cl)cc45)cc(C#N)c32)C1` [Compound 439, 5-(2-{5-chloro-2-oxo-1,2-dihydrospiro[indole-3,4′-piperidin]-1′-yl}ethoxy)-1-[(cis)-3-hydroxy-3-methylcyclobutyl]-1H-1,3-benzodiazole-7-carbonitrile] showed an AC50 of 0.603 µM.
`NC(=O)c1ccc(OCCN2CCC3(CC2)C(=O)Nc2ccc(Cl)cc23)cc1` [Compound 45, 4-(2-{5-chloro-2-oxo-1,2-dihydrospiro[indole-3,4′-piperidin]-1′-yl}ethoxy)benzamide] gave an AC50 of 0.746 µM.
`C[C@]1(O)C[C@H](n2ncc3cc(OCCN4CCC5(CC4)C(=O)Nc4ccc(Cl)cc45)cnc32)C1` (single isomer, unassigned) [Compound 408, 5-chloro-1′-[2-({1-[(trans)-3-hydroxy-3-methylcyclobutyl]-1H-pyrazolo[3,4-b]pyridin-5-yl}oxy)ethyl]-1,2-dihydrospiro[indole-3,4′-piperidin]-2-one] gave an AC50 of 0.283 µM.
For `C[C@]1(O)C[C@@H](n2cnc3cc(OCCN4CCC5(CC4)C(=O)Nc4c(I)cc(Cl)cc45)cc(C(F)(F)F)c32)C1` [Compound 453, 5-chloro-7-iodo-1′-[2-({1-[(cis)-3-hydroxy-3-methylcyclobutyl]-7-(trifluoromethyl)-1H-1,3-benzodiazol-5-yl}oxy)ethyl]-1,2-dihydrospiro[indole-3,4′-piperidin]-2-one], the AC50 was 0.935 µM.
For `CC1(O)CC(c2ncc(OCCN3CCC4(CC3)C(=O)Nc3ccc(Cl)cc34)cn2)C1` (single isomer, unassigned) [Compound 393, 5-chloro-1′-[2-({2-[(cis) or (trans)-3-hydroxy-3-methylcyclobutyl]pyrimidin-5-yl}oxy)ethyl]-1,2-dihydrospiro[indole-3,4′-piperidin]-2-one], the AC50 was 1.06 µM.
`C[C@]1(O)C[C@@H](N2C(=O)Cc3cc(OCCN4CCC5(CC4)C(=O)Nc4ccc(Cl)cc45)cnc32)C1` [Compound 345, 5-chloro-1′-[2-({2-oxo-1-[(cis)-3-hydroxy-3-methylcyclobutyl]-1H,2H,3H-pyrrolo[2,3-b]pyridin-5-yl}oxy)ethyl]-1,2-dihydrospiro[indole-3,4′-piperidin]-2-one] gave an AC50 of 0.469 µM.
